Assay results as given in patent publication US11471468B2, “Methods and systems for conditioning of particulate crystalline materials” (Pearl Therapeutics, Inc., priority 2013, dated 2022).

Assays:
Format in all cases: physicochemical
[1] = Particle size distribution by laser diffraction (Sympatec) after processing; settings: for Physical stability after micronization judged from size distribution: laser diffraction, Tables 4 and 5; for Particle Size Distribution Initial Span / Particle Size Distribution Initial X50 / Particle Size Distribution Initial X90: micronized sucrose
Source text: When referred to herein, the term “optical diameter” indicates the size of a particle as measured using a laser diffraction particle size analyzer equipped with a dry powder dispenser (e.g., Sympatec GmbH, Clausthal-Zellerfeld, Germany).
(§1) A portion of the micronized GP was also conditioned using an in-process conditioning system wherein nitrogen conditioning gas was supplied to the in-process conditioning system and was controlled for flow rate, temperature and humidity. The conditioning gas was humidified through a droplet evaporation chamber after which it was directed to a mixing zone. In the mixing zone, the conditioning gas was mixed with the jet-milled aerosol comprising the micronized GP. The aerosol then entered a conditioning zone where annealing of the micronized GP occurred. The particle residence time through the conditioning zone was adjusted by means of the conditioning zone chamber geometry and/or the gas flow rate through the conditioning zone chamber. After passing through the conditioning zone, the micronized GP particles reached the cyclone-collection zone where the solid particles were separated from the gas phase and transported to a collection vessel. Upon completion of the batch processing, the collector was disengaged and transferred to a glove box for sampling. The sampling occurred in a <5% relative humidity environment. Samples were then analyzed for particle size distribution and amorphous content.
(§2) Both micronized sucrose batches were analyzed for particle size distribution by Sympatec laser diffraction.

[2] = as above; settings: for D10 / D50 / D90 / Span: micronized fluticasone propionate; for Particle Size Distribution Initial X10: micronized sucrose
[3] = Amorphous content by (dynamic) vapor sorption; settings: for Amorphous content by ethanol vapor sorption isotherm / Amorphous content by water vapor sorption isotherm: 25° C.; for Amorphous content by ethanol vapor sorption isotherm: FIG. 9 / FIG. 11; for Amorphous content by water vapor sorption isotherm: FIG. 13
Source text: as §1
(§3) The amorphous content by vapor sorption and particle morphology for both batches were also assessed. FIG. 9 provides the ethanol vapor sorption isotherm at 25° C. for both batches of micronized budesonide.
(§4) The amorphous content by vapor sorption and particle morphology for both batches were also assessed. FIG. 11 provides the ethanol vapor sorption isotherm at 25° C. for both batches of micronized fluticasone.
All batches were also analyzed for amorphous content by dynamic vapor sorption using n=2 replicates per collector.
(§5) The amorphous content by vapor sorption and particle morphology for both batches of micronized sucrose were also assessed. FIG. 13 provides the water vapor sorption isotherm at 25° C. for both batches of micronized sucrose.

[4] = Particle morphology by electron micrograph / SEM; settings: FIG. 10 / FIG. 12 / FIG. 14
Description: as §3, §4, §5

[5] = Physical stability: particle size distribution and fusing after 1-day exposure to 25° C. and 60% relative humidity; settings: micronized sucrose; for Physical Stability: 25° C./60% RH; for Stability of powder on exposure: Sucrose A by visual observation, Sucrose B exposed to 25° C./60% RH
Source text: When used to refer to the conditioned particulate material described herein, the terms “physical stability” and “physically stable” refer to a composition that is resistant to one or more of particle fusing, aggregation, agglomeration, and particle size changes. In certain embodiments, physical stability may be evaluated through exposing the particulate material to accelerated degradation conditions, such as increased temperature and/or humidity as described herein.
as §2

[6] = Stability diagram (glass transition plasticization curve combined with sorption isotherm); settings: from stability diagram FIG. 18
Source text: Crystallization of an amorphous phase typically occurs rapidly when the amorphous material is exposed to conditions that exceed its glass transition temperature, usually twenty degrees Celsius above the glass transition temperature (Lechuga-Ballesteros, D.; Miller, D. P.; Zhang, J., Residual water in amorphous solids, measurement and effects on stability. In Progress in Amorphous Food and Pharmaceutical Systems, Levine, H., Ed. The Royal Society of Chemistry: London, 2002; pp 275-316). Exposure of amorphous material to temperature in excess of the glass transition can be achieved in the absence of any solvent by exposing the amorphous material to a stream of hot air above its glass transition temperature. However, the glass transition temperature is also a function of the fraction of solvent present in the amorphous material, an effect known as plasticization.
In addition, the solvent content held in an amorphous material is a function of the vapor concentration of the solvent surrounding the amorphous solid. The sorption isotherm of a given material is a representation of the amount of solvent in the amorphous material as a function of the solvent activity (which is proportional to the solvent vapor pressure to saturation solvent vapor pressure ratio) at a given temperature. […]

Compound | Physical stability after micronization judged from size distribution [1] | D10 [2] | D50 [2] | D90 [2] | Span [2] | Amorphous content by ethanol vapor sorption isotherm [3] | Particle morphology by SEM, annealed compared with unannealed material [4] | Stability of powder on exposure [5] | Amorphous content by water vapor sorption isotherm [3] | also measured
CCC(=O)O[C@]1(C(=O)SCF)[C@H](C)C[C@H]2[C@@H]3C[C@H](F)C4=CC(=O)C=C[C@]4(C)[C@@]3(F)[C@@H](O)C[C@@]21C [Micronized Fluticasone propionate, Batch 1 (unannealed)] | agglomeration | 0.5 μm | 1.5 μm | 3.4 μm | 2.0 | remained substantially amorphous | – | – | – | Ethanol relative pressure at which weight loss is seen ([3]; ethanol vapor sorption isotherm at 25° C.): 60 % p/po
CCC(=O)O[C@]1(C(=O)SCF)[C@H](C)C[C@H]2[C@@H]3C[C@H](F)C4=CC(=O)C=C[C@]4(C)[C@@]3(F)[C@@H](O)C[C@@]21C [Micronized Fluticasone propionate, Batch 2 (annealed)] | good physical stability | 0.5 μm | 1.4 μm | 3.1 μm | 1.9 | stable and showed no crystallization event | smoother surfaces and more rounded edges | – | – | –
OC[C@H]1O[C@@](CO)(O[C@H]2O[C@H](CO)[C@@H](O)[C@H](O)[C@H]2O)[C@@H](O)[C@@H]1O [Sucrose A, Sucrose] | – | – | – | – | – | – | – | fusing of the material | remained substantially amorphous | Particle Size Distribution Initial Span ([1]; listed as Sucrose 1): 2.4; Particle Size Distribution Initial X50 ([1]; listed as Sucrose 1): 1.7 μm; Particle Size Distribution Initial X90 ([1]; listed as Sucrose 1): 4.5 μm; Physical Stability ([5]; listed as Sucrose 1): Unstable,; Particle Size Distribution Initial X10 ([2]; listed as Sucrose 1): 0.5 μm; Water relative pressure at which weight loss is seen ([3]; water vapor sorption isotherm at 25° C.): 30 % p/po
OC[C@H]1O[C@@](CO)(O[C@H]2O[C@H](CO)[C@@H](O)[C@H](O)[C@H]2O)[C@@H](O)[C@@H]1O [Sucrose B, Sucrose] | – | – | – | – | – | – | smoother surfaces and more rounded edges | good stability | stable and showed no crystallization event | Particle Size Distribution Initial Span ([1]; listed as Sucrose 2): 1.9; Particle Size Distribution Initial X50 ([1]; listed as Sucrose 2): 2.2 μm; Particle Size Distribution Initial X90 ([1]; listed as Sucrose 2): 4.9 μm; Physical Stability [5]: Stable,; Particle Size Distribution T = 1 day at 25° C./60% RH Span ([5]; T = 1 day at 25° C./60% RH): 1.9; Particle Size Distribution T = 1 day at 25° C./60% RH X10 ([5]; T = 1 day at 25° C./60% RH): 0.7 μm; Particle Size Distribution T = 1 day at 25° C./60% RH X50 ([5]; T = 1 day at 25° C./60% RH): 2.5 μm; Particle Size Distribution T = 1 day at 25° C./60% RH X90 ([5]; T = 1 day at 25° C./60% RH): 5.2 μm; Particle Size Distribution Initial X10 ([2]; listed as Sucrose 2): 0.6 μm
C[N+]1(C)CCC(OC(=O)C(O)(c2ccccc2)C2CCCC2)C1.[Br-] (stereo not drawn) [glycopyrrolate, 3-[(cyclopentylhydroxyphenylacetyl)oxy]-1,1-dimethylpyrrolidinium bromide] | – | – | – | – | – | – | – | – | – | RH required to promote annealing ([6]; at 60° C.): 10 % RH; RH at which fast crystallization of amorphous material will occur ([6]; in the range of 20-40° C.): > 50%
